One experiment addresses T1, TNKS2 (Homo sapiens, UniProt Q9H2K2).
T1 construct: GST-tagged Tnks-2 (873-1166 aa, prepared in-house); made in house
The experiment can be described thus: TNKS2 activity ELISA (autoparsylation assay). In kind it is biochemical. As to the method: (§1) Description of the TNKS1 and TNKS2 ELISA Assay
(§2) Biochemical Activity Testing of TNKS 1 and 2: Activity ELISA (Autoparsylation Assay)
(§3) For analysis of autoparsylation activity of TNKS 1 and 2 an activity ELISA iss performed: In the first step GST tagged TNKS is captured on a Glutathione coated plate. Then the activity assay with biotinylated NAD is performed in the absence/presence of the compounds. During the enzymatic reaction GST tagged TNKS transfers biotinylated ADP-ribose to itself from biotinylated NAD as co-substrate. For the detection streptavidin-HRP conjugate is added that binds to the biotinylated TNKS and is thereby captured to the plates. The amount of biotinylated resp. autoparsylated TNKS is detected with a luminescence substrate for HRP. The level of the luminescence signal correlates directly with the amount of autoparsylated TNKS and therefore with activity of TNKS.
(§4) The activity ELISA is performed in 384 well Glutathione coated microtiter plates (Express capture Glutathione coated plate, Biocat, Heidelberg, Germany). The plates are pre-equilibrated with PBS. […] The plates are washed 3 times with PBS-Tween-20. The wells are blocked by incubation at room temperature for 20 minutes with 50 μl blocking buffer (PBS, 0.05% Tween-20, 0.5% BSA). Afterwards the plates are washed 3 times with PBS-Tween-20. […] The reaction is stopped by 3 times washing with PBS-Tween-20. For the detection 50 μl of 20 ng/μl Streptavidin, HRP conjugate (MoBiTec, Göttingen, Germany) in PBS/0.05% Tween-20/0.01% BSA are added and the plates are incubated for 30 minutes at room temperature. After three times washing with PBS-Tween-20 50 μl of SuperSignal ELISA Femto Maximum sensitivity substrate solution (ThermoFisherScientific (Pierce), Bonn, Germany) are added. Following a 1 minute incubation at room temperature luminescence signals are measured with an Envision multimode reader (Perkin Elmer LAS Germany GmbH) at 700 nm. The full value used is the inhibitor-free reaction. […] The inhibitory values (IC50) are determined using either the program Symyx Assay Explorer® or Condosseo® from GeneData.
A general note: An ELISA detects its analyte on a solid surface through an enzyme-linked reagent.

The target of another experiment is T2, TNKS1 (Homo sapiens, UniProt O95271).
T2 construct: GST-tagged Tnks-1 (1023-1327 aa, prepared in-house); made in house
The experiment can be described thus: TNKS1 activity ELISA (autoparsylation assay). It is filed as biochemical. As to the method:
as §1, §2, §3, §4

A further experiment deals with T3, Tankyrase.
T3 construct: TNKS cellular assay; other: DLD1 cells, Axin2 increase, 24 hours
Briefly: Measurement of cellular inhibition of Tankyrase (Axin2 level in DLD1 cells, Luminex based assay). In kind it is cell-based. Particulars: read-out: EC50 [M] TNKS cellular assay; DLD1 cells, Axin2 increase, 24 hours. As to the method:
Measurement of Cellular Inhibition of Tankyrase
Cells of the colon carcinoma cell line DLD1 are plated in 96 well plates with 1.5×10^4 cells per well. Next day, cells are treated with a serial dilution of test compound in seven steps as triplicates with a final DMSO concentration of 0.3%. […] The amount of isolated Axin2 protein is determined in a Luminex^200 machine (Luminex Corporation) according to the manufacturer's instruction by counting 100 events per well. […] As controls cells are treated with solvent alone (neutral control) and with a Tankyrase reference inhibitor IWR-2 (3E-06 M) which refers as control for maximum increase of Axin2. For analysis, the obtained data are normalized against the untreated solvent control and fitted for determination of the EC50 values using the Assay Explorer software (Accelrys).

In a further experiment the target is T4, PARP-1 (Homo sapiens, UniProt P09874).
T4 construct: purchased Enzo Life Sciences GmbH, Lörrach, Germany
The experiment can be described thus: PARP-1 autoparsylation assay (HTRF). In kind it is biochemical. Particulars: His-tagged Parp-1, autoparsylation. Background: Time-resolved FRET reads energy transfer from a long-lived donor to a nearby acceptor.

Where [1] appears, read: GST-tagged Tnks-2, read-out: IC50 [M] TNKS2 ELISA.
The mark [2] stands for this setting: GST-tagged Tnks-1, read-out: IC50 [M] TNKS1 ELISA.

The results in this text go back to US9901577B2, “Oxoquinazolinyl-butanamide derivatives” (MERCK PATENT GMBH, priority 2013, dated 2018).

Like-named read-outs stand apart in the source and are kept apart here.

T4 sequence (P09874 whole entry): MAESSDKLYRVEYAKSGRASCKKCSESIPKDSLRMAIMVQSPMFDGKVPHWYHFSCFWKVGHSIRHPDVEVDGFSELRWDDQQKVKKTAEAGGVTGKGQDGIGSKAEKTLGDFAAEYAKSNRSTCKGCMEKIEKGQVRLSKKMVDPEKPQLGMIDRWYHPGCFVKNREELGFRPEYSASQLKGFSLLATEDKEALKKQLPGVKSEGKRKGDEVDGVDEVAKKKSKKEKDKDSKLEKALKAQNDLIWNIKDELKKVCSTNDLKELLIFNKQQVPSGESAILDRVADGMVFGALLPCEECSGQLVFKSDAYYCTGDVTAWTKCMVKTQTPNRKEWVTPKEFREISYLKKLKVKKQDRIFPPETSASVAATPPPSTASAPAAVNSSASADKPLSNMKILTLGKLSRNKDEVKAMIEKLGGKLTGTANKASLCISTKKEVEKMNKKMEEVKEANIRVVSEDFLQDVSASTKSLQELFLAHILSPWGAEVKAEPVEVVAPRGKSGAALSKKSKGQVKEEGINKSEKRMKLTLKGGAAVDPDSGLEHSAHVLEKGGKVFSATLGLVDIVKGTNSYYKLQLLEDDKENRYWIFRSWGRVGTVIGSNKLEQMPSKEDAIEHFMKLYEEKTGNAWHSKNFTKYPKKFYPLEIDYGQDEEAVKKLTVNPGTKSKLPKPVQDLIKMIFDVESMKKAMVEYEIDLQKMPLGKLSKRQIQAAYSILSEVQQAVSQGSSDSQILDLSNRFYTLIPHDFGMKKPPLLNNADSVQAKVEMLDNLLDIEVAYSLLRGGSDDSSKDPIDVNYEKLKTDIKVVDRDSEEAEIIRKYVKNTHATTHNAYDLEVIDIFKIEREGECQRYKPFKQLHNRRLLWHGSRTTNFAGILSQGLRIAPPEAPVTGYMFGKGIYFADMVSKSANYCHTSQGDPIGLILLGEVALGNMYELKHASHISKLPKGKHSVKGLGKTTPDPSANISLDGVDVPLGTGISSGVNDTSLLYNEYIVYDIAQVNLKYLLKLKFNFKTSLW
T1 sequence (Q9H2K2 873-1166): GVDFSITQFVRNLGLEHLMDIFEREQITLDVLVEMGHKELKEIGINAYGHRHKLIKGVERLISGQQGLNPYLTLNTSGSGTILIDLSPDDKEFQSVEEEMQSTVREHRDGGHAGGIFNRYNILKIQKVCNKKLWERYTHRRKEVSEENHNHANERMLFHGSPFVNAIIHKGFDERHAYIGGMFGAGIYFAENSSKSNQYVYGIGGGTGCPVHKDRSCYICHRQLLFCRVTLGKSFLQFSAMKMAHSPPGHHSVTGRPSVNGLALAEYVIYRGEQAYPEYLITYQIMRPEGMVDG
T2 sequence (O95271 1023-1327): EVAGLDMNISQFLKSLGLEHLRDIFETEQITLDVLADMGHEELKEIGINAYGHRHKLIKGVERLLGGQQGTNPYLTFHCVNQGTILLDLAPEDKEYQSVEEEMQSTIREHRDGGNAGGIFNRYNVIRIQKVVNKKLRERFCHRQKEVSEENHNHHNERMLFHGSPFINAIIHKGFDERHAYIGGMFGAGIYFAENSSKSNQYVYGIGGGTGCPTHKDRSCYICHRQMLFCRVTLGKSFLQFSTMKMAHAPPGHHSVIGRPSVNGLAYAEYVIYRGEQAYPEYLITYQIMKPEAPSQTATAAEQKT

As for `COc1ccc(C(=O)C2CCN(C(=O)CCCc3nc4ccc(F)cc4c(=O)[nH]3)CC2)cc1F` [Compound A20, 6-Fluoro-2-{4-[4-(3-fluoro-4-methoxy-benzoyl)-piperidin-1-yl]-4-oxo-butyl}-3H-quinazolin-4-one], the IC50 (as a rule, the concentration that gives 50% inhibition) on TNKS2 (setting [1]) was found to be 2.5e-10 M; at TNKS1 (setting [2]) it was 2.5e-10 M; on PARP-1, 960 nM. For the same molecule, the half-maximal effective concentration (EC50) (as a rule, the midpoint of the concentration-response curve) in the experiment on Tankyrase was 3.4e-09 M.

With `N#Cc1cc(C2CCN(C(=O)CCCc3nc4ccccc4c(=O)[nH]3)CC2)cnc1N` [Compound A36, 6-Amino-1′-[4-(4-oxo-3,4-dihydro-quinazolin-2-yl)-butyryl]-1′,2′,3′,4′,5′,6-hexahydro-[3,4]bipyridinyl-5-carbonitrile], the concentration for half-maximal inhibition (IC50) against TNKS2 was 1.1e-09 M; at TNKS1 it was 1.9e-09 M; at PARP-1, 1100 nM. Moreover, in the experiment with Tankyrase, the EC50 stood at 2e-08 M.

For `COc1ccc(C(=O)C2CCN(C(=O)CCCc3nc4ccccc4c(=O)[nH]3)CC2)cc1F` [Compound A8, 2-{4-[4-(3-fluoro-4-methoxy-benzoyl)-piperidin-1-yl]-4-oxo-butyl}-3H-quinazolin-4-one], the figures for the IC50 at TNKS2 (setting [1]), at TNKS1 (setting [2]) and at PARP-1 were 1.5e-10 M, 8.5e-11 M and 680 nM, respectively. The EC50 in the experiment on Tankyrase turned out to be 3.4e-09 M.

`COc1ccc(C(=O)C2CCN(C(=O)CCCc3nc4c(F)cccc4c(=O)[nH]3)CC2)cc1F` [Compound A26, 8-Fluoro-2-{4-[4-(3-fluoro-4-methoxy-benzoyl)-piperidin-1-yl]-4-oxo-butyl}-3H-quinazolin-4-one]: the concentration for half-maximal inhibition (IC50) came to 2e-10 M on TNKS2 (setting [1]), 3e-10 M at TNKS1 (setting [2]) and 1300 nM against PARP-1. The half-maximal effective concentration (EC50) with Tankyrase is 1.3e-09 M.

As for `Nc1ncc(C2CCN(C(=O)CCCc3nc4ccccc4c(=O)[nH]3)CC2)cc1-c1ncccn1` [Compound A30, 2-[4-(6-Amino-5-pyrimidin-2-yl-3′,4′,5′,6-tetrahydro-2′H-[3,4]bipyridinyl-1′-yl)-4-oxo-butyl]-3H-quinazolin-4-one], the IC50 against TNKS2 was 3e-10 M; at TNKS1, 4.1e-10 M; against PARP-1, 670 nM. Further, in the experiment with Tankyrase, the concentration for a half-maximal effect (EC50) is 1.2e-09 M.

On to `Cn1cc(C(=O)C2CCN(C(=O)CCCc3nc4ccccc4c(=O)[nH]3)CC2)cn1` [Compound A41, 2-{4-[4-(1-Methyl-1H-pyrazole-4-carbonyl)-piperidin-1-yl]-4-oxo-butyl}-3H-quinazolin-4-one], for which the values for the IC50 at TNKS2 (setting [1]), on TNKS1 (setting [2]) and at PARP-1 were 3.3e-10 M, 5.8e-10 M and 2100 nM, respectively. Moreover, the half-maximal effective concentration (EC50) in the experiment with Tankyrase is 9e-09 M.

For `CCn1cc(-c2ccc(C(=O)C3CCN(C(=O)CCCc4nc5ccccc5c(=O)[nH]4)CC3)cc2)cn1` [Compound A10, 2-(4-{4-[4-(1-ethyl-1H-pyrazol-4-yl)-benzoyl]-piperidin-1-yl}-4-oxo-butyl)-3H-quinazolin-4-one], the IC50 came out at 1.6e-10 M at TNKS2, 1e-10 M at TNKS1 and 100 nM against PARP-1. The EC50 in the experiment on Tankyrase amounted to 4.9e-09 M.

With `CC(C)(O)c1ccc(C(=O)C2CCN(C(=O)CCCc3nc4ccccc4c(=O)[nH]3)CC2)cc1` [Compound A38, 2-(4-{4-[4-(1-Hydroxy-1-methyl-ethyl)-benzoyl]-piperidin-1-yl}-4-oxo-butyl)-3H-quinazolin-4-one], the results for the half-maximal inhibitory concentration (IC50) on TNKS2 (setting [1]), on TNKS1 (setting [2]) and against PARP-1 were 8.4e-09 M, 2.2e-08 M and 430 nM, respectively.

Turning to `COc1ccc(C(=O)C2CCN(C(=O)CCCc3nc4c(C)cc(F)cc4c(=O)[nH]3)CC2)cc1C` [Compound A15, 6-fluoro-2-[4-[4-(4-methoxy-3-methyl-benzoyl)-1-piperidyl]-4-oxo-butyl]-8-methyl-3H-quinazolin-4-one], the IC50 is 7.4e-11 M on TNKS2 (setting [1]), 8.8e-11 M on TNKS1 (setting [2]) and 64 nM at PARP-1. Besides, in the experiment with Tankyrase, the concentration for a half-maximal effect (EC50) was determined as 1.4e-09 M.

`COc1ccc(C(=O)C2CCN(C(=O)CCCc3nc4ccccc4c(=O)[nH]3)CC2)cc1C` [Compound A13, 2-[4-[4-(4-methoxy-3-methyl-benzoyl)-1-piperidyl]-4-oxo-butyl]-3H-quinazolin-4-one]: the IC50 was found to be 1.3e-10 M at TNKS2 (setting [1]), 1e-10 M on TNKS1 (setting [2]) and 990 nM at PARP-1. Also, the half-maximal effective concentration (EC50) in the experiment with Tankyrase was found to be 8.6e-10 M.

As for `O=C(c1ccc(F)cc1)C1CCN(C(=O)CCCc2nc3ccccc3c(=O)[nH]2)CC1` [Compound A18, 2-{4-[4-(4-Fluoro-benzoyl)-piperidin-1-yl]-4-oxo-butyl}-3H-quinazolin-4-one], the IC50 at TNKS2 (setting [1]) is 6.1e-10 M; on TNKS1 (setting [2]), 7e-10 M; against PARP-1, 2100 nM. The EC50 with Tankyrase was found to be 2.1e-08 M.

Take `COc1ccc(C(=O)C2CCN(C(=O)CCCc3nc4ccc(F)cc4c(=O)[nH]3)CC2)cn1` [Compound A21, 6-Fluoro-2-{4-[4-(6-methoxy-pyridine-3-carbonyl)-piperidin-1-yl]-4-oxo-butyl}-3H-quinazolin-4-one]: the half-maximal inhibitory concentration (IC50) turned out to be 6.8e-10 M on TNKS2 (setting [1]), 7.5e-10 M at TNKS1 (setting [2]) and 550 nM against PARP-1. Also, the EC50 in the experiment with Tankyrase was 7.8e-09 M.

Consider `N#Cc1cc(C2CCN(C(=O)CCCc3nc4ccc(F)cc4c(=O)[nH]3)CC2)cnc1N` [Compound A31, 6-Amino-1′-[4-(6-fluoro-4-oxo-3,4-dihydro-quinazolin-2-yl)-butyryl]-1′,2′,3′,4′,5′,6′-hexahydro-[3,4]bipyridinyl-5-carbonitrile], for which the values for the IC50 at TNKS2 (setting [1]), at TNKS1 (setting [2]) and at PARP-1 were 9.5e-10 M, 2.1e-09 M and 1400 nM, respectively. Further, in the experiment on Tankyrase, the concentration giving a half-maximal response (EC50) was 2.9e-09 M.

For `Cn1ccnc1C(=O)C1CCN(C(=O)CCCc2nc3ccccc3c(=O)[nH]2)CC1` [Compound A40, 2-{4-[4-(1-methyl-1H-imidazole-2-carbonyl)-piperidin-1-yl]-4-oxo-butyl}-3H-quinazolin-4-one], the IC50 on TNKS2 (setting [1]) is 6.1e-08 M; against TNKS1 it was 8.2e-08 M; against PARP-1, 3200 nM.

With `O=C(c1ccccc1)C1CCN(C(=O)CCCc2nc3ccccc3c(=O)[nH]2)CC1` [Compound A2, 2-[4-(4-benzoyl-piperidin-1-yl)-4-oxo-butyl]-3H-quinazolin-4-one], the IC50 on TNKS2 (setting [1]) turned out to be 5.5e-10 M; at TNKS1 (setting [2]), 7.3e-10 M; at PARP-1, 730 nM. The concentration giving a half-maximal response (EC50) in the experiment with Tankyrase came out at 6.5e-08 M.

Take `CC(C)(O)c1ccc(C(=O)C2CCN(C(=O)CCCc3nc4ccc(F)cc4c(=O)[nH]3)CC2)cc1` [Compound A39, 6-Fluoro-2-(4-{4-[4-(1-hydroxy-1-methyl-ethyl)-benzoyl]-piperidin-1-yl}-4-oxo-butyl)-3H-quinazolin-4-one]: the values for the 50% inhibitory concentration (IC50) on TNKS1 (setting [2]) and against PARP-1 were 9.6e-09 M and 270 nM, respectively.

For the molecule `CC(C)(O)c1ccc(C(=O)C2CCN(C(=O)CCCc3nc4c(F)cccc4c(=O)[nH]3)CC2)cc1` [Compound A37, 8-Fluoro-2-(4-{4-[4-(1-hydroxy-1-methyl-ethyl)-benzoyl]-piperidin-1-yl}-4-oxo-butyl)-3H-quinazolin-4-one], the IC50 on TNKS1 (setting [2]) amounted to 1.1e-08 M; on PARP-1, 4300 nM.

As to `O=C(c1ccc(F)cc1)C1CCN(C(=O)CCCc2nc3ccc(F)cc3c(=O)[nH]2)CC1` [Compound A23, 6-Fluoro-2-{4-[4-(4-fluoro-benzoyl)-piperidin-1-yl]-4-oxo-butyl}-3H-quinazolin-4-one], the IC50 at TNKS2 (setting [1]) is 5.9e-10 M; on TNKS1 (setting [2]), 8.4e-10 M; at PARP-1, 650 nM.

Consider `O=C(c1ccccc1)C1CCN(C(=O)CCCc2nc3c(F)cc(F)cc3c(=O)[nH]2)CC1` [Compound A6, 2-[4-(4-benzoyl-piperidin-1-yl)-4-oxo-butyl]-6,8-difluoro-3H-quinazolin-4-one], for which the IC50 on TNKS2 (setting [1]) is 9.3e-10 M; on TNKS1 (setting [2]) it was 3.8e-10 M; against PARP-1, 650 nM.
